Source: publication PMC11311250 (Organic & biomolecular chemistry, 2023)
Where two headings read alike, the source gives them in different places.

Experiments:
[1] = system: P. aeruginosa K799; test: antibacterial microdilution growth inhibition; assay type: cell-based, Pseudomonas aeruginosa
[2] = amide bond; 12-membered ring; T3P/DIEA; DMF; 45.0 °C
[3] = amide bond, 12-membered ring
[4] = T3P/DIEA, DCE, 1.0 mM, 80.0 °C, 3 steps
[5] = T3P/collidine, DCE, 1.0 mM, 80.0 °C, 3 steps

For “all-L cyclo(N-Me-Leu–Phe)2 (head to tail) [pseudoxylallemycin A]”, the growth inhibition [1] was “failed to inhibit the growth”.
With pseudoxylallemycin A the ring closure, yield after HPLC [2] was 24%, the ring closure, isolated yield [3, 4] was 18.1% and the ring closure, isolated yield ([3]; T3P/DIEA, DMF, 1.0 mM, 45.0 °C, 3 steps) was 11.7%. The ring closure, isolated yield ([3]; T3P/DIEA, DMF, 1.0 mM, 80.0 °C, 3 steps) was 14.7%, the ring closure, isolated yield ([3]; T3P/DtBP, DCE, 1.0 mM, 80.0 °C, 3 steps) was 19% and the ring closure, isolated yield [3, 5] was 36%. It also gave a ring closure, isolated yield ([3]; T3P/pyridine, DCE, 1.0 mM, 80.0 °C, 3 steps) of 32%.
Substance epi-pseudoxylallemycin has a ring closure, isolated yield ([3]; T3P/DIEA, DCM/DMF 9:1, 45.0 °C) of 26%.
In the case of ALAL, the ring closure, isolated yield [3, 5] is reported as 11%.
Substance “(3S,6S,9R,12S)-3,9-dibenzyl-1,6,7,12-tetramethyl-1,4,7,10-tetraazacyclododecane-2,5,8,11-tetraone (cyclo (L-N-Me-Ala–L-Phe–L-N-Me-Ala-D-Phe))” has a ring closure, isolated yield [3, 4] of 5%.
With epi-pseudoxylallemycin A the ring closure, isolated yield [3, 5] was 33%.
